Measurements reported in ChEMBL document CHEMBL1201862, “PubChem BioAssay data set” (2004).
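96-well plates; 48 h exposure; 5 concentrations. Endpoints by linear interpolation between flanking doses. Not reached: highest tested concentration assigned. Abbreviation: GI50, concentration required for 50% inhibition of growth.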 Calls of active or inactive are those of the source. Rule as the data show it: active = GI50 up to about 1.1 µM and inactive = higher.

How the values were obtained:
Experiment in all cases: NCI tumour cell line growth inhibition, 48 h
786-0 = test system: 786-0
CAKI-1 = test system: CAKI-1
CCRF-CEM = test system: CCRF-CEM
COLO 205 = test system: COLO 205
EKVX = test system: EKVX
HCT-15 = test system: HCT-15
HOP-62 = test system: HOP-62
Malme-3M = test system: Malme-3M
OVCAR-4 = test system: OVCAR-4
OVCAR-5 = test system: OVCAR-5
RXF 393 = test system: RXF 393
SK-MEL-5 = test system: SK-MEL-5
SK-OV-3 = test system: SK-OV-3
SNB-19 = test system: SNB-19
SW-620 = test system: SW-620
UACC-62 = test system: UACC-62
UO-31 = test system: UO-31
A498 = test system: A498

SMILES	GI50 (786-0)	GI50 (CAKI-1)	GI50 (CCRF-CEM)	GI50 (COLO 205)	GI50 (EKVX)	GI50 (HCT-15) [µM]	GI50 (HOP-62)	GI50 (Malme-3M)	GI50 (OVCAR-4)	GI50 (OVCAR-5)	GI50 (RXF 393)	GI50 (SK-MEL-5)	GI50 (SK-OV-3)	GI50 (SNB-19)	GI50 (SW-620)	GI50 (UACC-62)	GI50 (UO-31)	GI50 (A498)
CCCCCCCCCCCC(=O)c1c(O)cccc1O	18.1 µM (inactive)	23.4 µM (inactive)	24.5 µM (inactive)	15.3 µM (inactive)	19.1 µM (inactive)	18.6	17.6 µM (inactive)	14.6 µM (inactive)	20.4 µM (inactive)	15.2 µM (inactive)	24.4 µM (inactive)	13.6 µM (inactive)	30.8 µM (inactive)	16.5 µM (inactive)	19.1 µM (inactive)	19.6 µM (inactive)	16.5 µM (inactive)	–
Clc1ccc(C2=Nc3ccccc3SC(c3cccs3)C2)cc1 (configuration not stated)	16.3 µM (inactive)	15.5 µM (inactive)	–	17.4 µM (inactive)	17.5 µM (inactive)	14	18.2 µM (inactive)	> 10 µM (inactive)	14 µM (inactive)	14.5 µM (inactive)	10.7 µM (inactive)	16.5 µM (inactive)	16.8 µM (inactive)	16.4 µM (inactive)	13.1 µM (inactive)	15.3 µM (inactive)	13.6 µM (inactive)	14.9 µM (inactive)
COc1nc(OC)c2c(=O)oc(-c3ccccc3)cc2n1	> 100 µM (inactive)	> 100 µM (inactive)	–	–	> 100 µM (inactive)	> 100	–	> 100 µM (inactive)	> 100 µM (inactive)	> 100 µM (inactive)	> 100 µM (inactive)	> 100 µM (inactive)	> 100 µM (inactive)	> 100 µM (inactive)	> 100 µM (inactive)	> 100 µM (inactive)	> 100 µM (inactive)	–
COc1ccc2c(c1)CC1NC2Cc2ccccc21 (configuration not stated)	> 100 µM (inactive)	> 100 µM (inactive)	> 100 µM (inactive)	> 100 µM (inactive)	> 100 µM (inactive)	> 100	> 100 µM (inactive)	> 100 µM (inactive)	> 100 µM (inactive)	> 100 µM (inactive)	–	> 100 µM (inactive)	> 100 µM (inactive)	–	> 100 µM (inactive)	> 100 µM (inactive)	> 100 µM (inactive)	> 100 µM (inactive)
CCOC(=O)C1=C(C)NC(=O)NC1c1ccc(OC)cc1OC (configuration not stated)	> 100 µM (inactive)	> 100 µM (inactive)	84.5 µM (inactive)	> 100 µM (inactive)	> 100 µM (inactive)	> 100	> 100 µM (inactive)	> 100 µM (inactive)	–	> 100 µM (inactive)	72.6 µM (inactive)	> 100 µM (inactive)	> 100 µM (inactive)	> 100 µM (inactive)	> 100 µM (inactive)	> 100 µM (inactive)	> 100 µM (inactive)	> 100 µM (inactive)
CCOC(=O)c1cc(/C=C/C(C)=C/C(=O)OC)oc1C	> 100 µM (inactive)	> 100 µM (inactive)	> 100 µM (inactive)	> 100 µM (inactive)	> 100 µM (inactive)	> 100	> 100 µM (inactive)	> 100 µM (inactive)	> 100 µM (inactive)	> 100 µM (inactive)	–	–	> 100 µM (inactive)	> 100 µM (inactive)	> 100 µM (inactive)	> 100 µM (inactive)	> 100 µM (inactive)	–
CCOC(=O)C1=C(Nc2cccc3ccccc23)OCC1=O	> 100 µM (inactive)	> 100 µM (inactive)	> 100 µM (inactive)	> 100 µM (inactive)	> 100 µM (inactive)	–	> 100 µM (inactive)	> 100 µM (inactive)	> 100 µM (inactive)	> 100 µM (inactive)	–	> 100 µM (inactive)	> 100 µM (inactive)	> 100 µM (inactive)	> 100 µM (inactive)	> 100 µM (inactive)	> 100 µM (inactive)	> 100 µM (inactive)
O=C1C=CC(=O)c2nc3c(cc21)CCC3	18 µM (inactive)	17 µM (inactive)	5.61 µM (inactive)	14.5 µM (inactive)	–	–	> 100 µM (inactive)	17.5 µM (inactive)	15.7 µM (inactive)	> 100 µM (inactive)	19.7 µM (inactive)	20.4 µM (inactive)	–	> 100 µM (inactive)	16.6 µM (inactive)	18.6 µM (inactive)	> 100 µM (inactive)	–
Brc1cccc(C2SCc3nc4ccccc4n32)c1 (configuration not stated)	17.5 µM (inactive)	30.2 µM (inactive)	26.2 µM (inactive)	19.1 µM (inactive)	18.7 µM (inactive)	15.2	15.3 µM (inactive)	24 µM (inactive)	19 µM (inactive)	6.01 µM (inactive)	5.93 µM (inactive)	6.4 µM (inactive)	21.6 µM (inactive)	–	31.8 µM (inactive)	12.9 µM (inactive)	9.46 µM (inactive)	–
Cc1ccc([S+](c2ccccc2)c2cc(C)ccc2C)cc1 (configuration not stated)	35.2 µM (inactive)	26.7 µM (inactive)	0.438 µM (active)	2.99 µM (inactive)	1.17 µM (inactive)	–	15.1 µM (inactive)	0.271 µM (active)	29.4 µM (inactive)	–	–	0.53 µM (active)	–	4.38 µM (inactive)	5.64 µM (inactive)	4.52 µM (inactive)	> 100 µM (inactive)	0.0435 µM (active)
N=C(N)N/N=C/c1c[nH]c2ccccc12	> 100 µM (inactive)	> 100 µM (inactive)	> 100 µM (inactive)	> 100 µM (inactive)	> 100 µM (inactive)	> 100	> 100 µM (inactive)	> 100 µM (inactive)	> 100 µM (inactive)	> 100 µM (inactive)	> 100 µM (inactive)	> 100 µM (inactive)	> 100 µM (inactive)	> 100 µM (inactive)	> 100 µM (inactive)	> 100 µM (inactive)	> 100 µM (inactive)	–
CN(C)CCNC(=O)c1cccc2ccc(-c3ccncc3)nc12	2.72 µM (inactive)	1.52 µM (inactive)	1.87 µM (inactive)	1.3 µM (inactive)	2.47 µM (inactive)	1.44	1.66 µM (inactive)	–	2.79 µM (inactive)	1.93 µM (inactive)	2.36 µM (inactive)	1.55 µM (inactive)	2.22 µM (inactive)	2.81 µM (inactive)	1.33 µM (inactive)	1.8 µM (inactive)	1.94 µM (inactive)	1.3 µM (inactive)
N=C(N)N/N=C(/CC1OC(=O)c2ccccc21)c1ccc2ccccc2c1 (configuration not stated)	17.1 µM (inactive)	> 100 µM (inactive)	15.1 µM (inactive)	19.6 µM (inactive)	23.1 µM (inactive)	15.3	18.5 µM (inactive)	14.5 µM (inactive)	17.2 µM (inactive)	30.1 µM (inactive)	–	21.4 µM (inactive)	21.9 µM (inactive)	> 100 µM (inactive)	–	17.9 µM (inactive)	17.8 µM (inactive)	16 µM (inactive)
CCOC(=O)/C(=C\c1ccccc1)C(=O)O	> 100 µM (inactive)	> 100 µM (inactive)	> 100 µM (inactive)	> 100 µM (inactive)	> 100 µM (inactive)	> 100	> 100 µM (inactive)	> 100 µM (inactive)	> 100 µM (inactive)	> 100 µM (inactive)	–	> 100 µM (inactive)	> 100 µM (inactive)	> 100 µM (inactive)	> 100 µM (inactive)	> 100 µM (inactive)	> 100 µM (inactive)	> 100 µM (inactive)
CC1=C[C@H]2c3c([nH]c4ccccc34)C(c3c[nH]c4ccccc34)[C@H]2CC1 (some centres not stated)	3.88 µM (inactive)	12.9 µM (inactive)	3.36 µM (inactive)	3.41 µM (inactive)	12.4 µM (inactive)	5.41	–	18.5 µM (inactive)	–	–	1.74 µM (inactive)	11.9 µM (inactive)	13.7 µM (inactive)	–	6.37 µM (inactive)	10.6 µM (inactive)	> 10 µM (inactive)	15.5 µM (inactive)
O=C(/C=C/c1ccc[nH]1)c1ccccc1	> 100 µM (inactive)	> 100 µM (inactive)	> 100 µM (inactive)	> 100 µM (inactive)	–	> 100	> 100 µM (inactive)	> 100 µM (inactive)	> 100 µM (inactive)	> 100 µM (inactive)	> 100 µM (inactive)	> 100 µM (inactive)	> 100 µM (inactive)	> 100 µM (inactive)	> 100 µM (inactive)	> 100 µM (inactive)	> 100 µM (inactive)	–
COc1cc(/C=C\c2ccc(Br)cc2)cc(OC)c1OC	0.00043 µM (active)	0.01 µM (active)	0.000352 µM (active)	0.00486 µM (active)	0.00385 µM (active)	0.00333	0.01 µM (active)	0.0024 µM (active)	0.0622 µM (active)	35.4 µM (inactive)	–	0.000527 µM (active)	58.2 µM (inactive)	0.0057 µM (active)	0.000382 µM (active)	0.000404 µM (active)	0.00321 µM (active)	0.01 µM (active)
Nc1n[n+]([O-])c2ccccc2[n+]1[O-] [TIRAPAZAMINE]	> 100 µM (inactive)	46.2 µM (inactive)	> 100 µM (inactive)	> 100 µM (inactive)	> 100 µM (inactive)	> 100	53.1 µM (inactive)	50.4 µM (inactive)	> 100 µM (inactive)	> 100 µM (inactive)	57.5 µM (inactive)	40.5 µM (inactive)	73.1 µM (inactive)	> 100 µM (inactive)	> 100 µM (inactive)	61.7 µM (inactive)	> 100 µM (inactive)	–
